Biological target: T1, PD-1/PD-L1 (Homo sapiens, UniProt Q9NZQ7)
T1 construct: 60535 (PD-1/NFAT-Reporter-Jurkat); host or cells: CHO cells expressing PD-L1; Jurkat cells expressing PD-1
Assay: Detection of biological activity of PD-1/PD-L1 signaling inhibition at the cellular level (NFAT luciferase reporter, PD-1/NFAT-Reporter-Jurkat cells co-cultured with TCR activator/PD-L1-CHO cells)
Assay type: cell-based
Settings: PD-1/NFAT-Reporter-Jurkat + TCR activator/PD-L1-CHO co-culture, 6 hours; Atezolizumab as positive control
Excerpt: Detection of Biological Activity of PD-1/PD-L1 Signaling Inhibition at the Cellular Level
This detection method is used for evaluating the biological activity of the compounds described in the present invention at the cellular level.
This detection method uses the luciferase reporter gene method to detect the biological activity of the compound on the inhibition of PD-1/PD-L1 signal at the cellular level. PD-1/NFAT—Reporter—Jurkat cells stably express human PD-1 and express the luciferase reporter gene regulated by NFAT elements; TCR activator/PD-L1-CHO cells stably express human PD-L1 and TCR activator elements. When the two cell lines were co-cultured, the binding of PD-1/PD-L1 inhibited the TCR signaling pathway, thereby inhibiting the expression of the downstream NFAT-controlled luciferase reporter gene. When PD-1/PD-L1 antibody or inhibitor is added, this inhibitory effect is reversed and luciferase is expressed, so that the effect of PD-1/PD-L1 inhibitor on luciferase activity can be detected.
PD-1/NFAT—Reporter—Jurkat cell (Cat: 60535) and TCR activator/PD-L1-CHO cell (Cat: 60536) were purchased from BPS Bioscience. Anti-human PD-L1 antibody (Atezolizumab, Cat: A2004) was purchased from Selleck; luciferase reporter gene expression detection kit (ONE-Glo™ Luciferase Assay System, Cat: E6120) was purchased from Promega; multifunction plate reader (SpectraMax i3x) was purchased from Molecular Devices.
The PD-1/NFAT—Reporter—Jurkat cells and TCR activator/PD-L1-CHO cells were cultured according to the routine cell culture protocol.
TCR activator/PD-L1-CHO cells were harvested and seeded into a 96-well culture plate at 35,000 cells/well in a medium volume of 100 μl and incubated overnight at 37° C. The next day, the medium was discarded, compound was added and incubated for 30 minutes, while a solvent control (dimethyl sulfoxide, DMSO, final concentration of 0.1%) and PD-L1 antibody (Atezolizumab, final concentration of about 10 nM) as positive controls were set. PD-1/NFAT-reporter-Jurkat cells were then added. After culturing for 6 hours, the luciferase activity was detected according to the instructions of the luciferase detection reagent.
Using PD-L1 antibody as a positive control, calculate the inhibition rate of PD-1/PD-L1 binding of the test compound (%)=(chemiluminescence value of compound treated wells/average value of chemiluminescence value of solvent control wells−1)/(average value of chemiluminescence value of PD-L1 antibody well/average value of chemiluminescence value of solvent control well−1)×100%.
According to the above detection method, the compounds of the present invention were evaluated for their biological activity at the cellular level, and the activity results are shown in the following table.

T1 sequence (Q9NZQ7 19-290): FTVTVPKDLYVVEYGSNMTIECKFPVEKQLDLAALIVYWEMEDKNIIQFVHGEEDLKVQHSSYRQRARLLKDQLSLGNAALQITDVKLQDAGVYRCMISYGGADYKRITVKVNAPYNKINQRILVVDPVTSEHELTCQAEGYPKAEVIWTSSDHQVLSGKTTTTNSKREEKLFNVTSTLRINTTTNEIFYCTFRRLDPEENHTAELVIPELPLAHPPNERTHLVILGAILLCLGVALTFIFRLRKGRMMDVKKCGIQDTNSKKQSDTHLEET

COc1cc(-c2cccc(-c3cccc4c3cnn4Cc3cc(OC)c(CNC[C@H]4CC[C@H](C(=O)O)CC4)cc3Cl)c2Cl)ccc1CNC[C@@H]1CCC(=O)N1 [Compound 54]
EC50: 38 nM

COc1cc(-c2cccc(-c3cccc4c3cnn4Cc3cc(OC)c(CN(C)C[C@H]4CC[C@H](C(=O)O)CC4)cc3Cl)c2Cl)ccc1CNC[C@@H]1CCC(=O)N1 [Compound 55]
EC50: 66 nM

COc1cc(-c2cccc(-c3cccc4c3cnn4Cc3cc(OC)c(CN[C@H]4CC[C@H](C(=O)O)CC4)cc3Cl)c2Cl)ccc1CNC[C@@H]1CCC(=O)N1 [Compound 56]
EC50: 50 nM

COc1cc(-c2cccc(-c3cccc4c3cnn4Cc3cc(OC)c(CN(C)[C@H]4CC[C@H](C(=O)O)CC4)cc3Cl)c2Cl)ccc1CNC[C@@H]1CCC(=O)N1 [Compound 57]
EC50: 38 nM

COc1cc(-c2cccc(-c3cccc4c3cnn4Cc3cc(OC)c(CNC[C@@H]4CCC(=O)N4)cc3Cl)c2Cl)ccc1CNC[C@@H]1CCC(=O)N1 [Compound 58]
EC50: 69 nM

COc1cc(-c2cccc(-c3cccc4c3cnn4Cc3cc(OC)c(CN[C@H]4CC[C@@H](C(=O)O)CC4)cc3Cl)c2Cl)ccc1CNC[C@@H]1CCC(=O)N1 [Compound 59]
EC50: 37 nM

COc1cc(-c2cccc(-c3cccc4c3cnn4Cc3cc(OC)c(CN(C)[C@H]4CC[C@@H](C(=O)O)CC4)cc3Cl)c2Cl)ccc1CNC[C@@H]1CCC(=O)N1 [Compound 60]
EC50: 33 nM

COc1cc(Cn2ncc3c(-c4cccc(-c5ccc(CN6CC[C@@H](O)C6)cc5)c4Cl)cccc32)c(Cl)cc1CNC[C@H]1CC[C@H](C(=O)O)CC1 [Compound 63]
EC50: 950 nM

COc1cc(Cn2ncc3c(-c4cccc(-c5ccc(CN6CC[C@@H](C(=O)O)C6)cc5)c4Cl)cccc32)c(Cl)cc1CN1CC[C@@H](O)C1 [Compound 69]
EC50: 805 nM

COc1cc(Cn2ncc3c(-c4cccc(-c5ccc(CN6CC[C@@H](C(=O)O)C6)c(OC)c5)c4Cl)cccc32)c(Cl)cc1CNC[C@@H]1CCC(=O)N1 [Compound 70]
EC50: 222 nM

COc1cc(Cn2ncc3c(-c4cccc(-c5ccc(CN6CC[C@@H](C(=O)O)C6)c(OC)c5)c4Cl)cccc32)c(Cl)cc1CN1CC[C@@H](O)C1 [Compound 71]
EC50: 693 nM

COc1cc(Cn2ncc3c(-c4cccc(-c5ccc(CNC[C@@H]6CCC(=O)N6)cc5)c4Cl)cccc32)c(C#N)cc1CN[C@@H](CO)C(=O)O [Compound 75]
EC50: 142 nM

COc1cc(Cn2ncc3c(-c4cccc(-c5ccc(CNC[C@@H]6CCC(=O)N6)cc5)c4Cl)cccc32)c([N+](=O)[O-])cc1CN[C@@H](CO)C(=O)O [Compound 76]
EC50: 49 nM

COc1nc(Cn2ncc3c(-c4cccc(-c5ccc(CNC[C@@H]6CCC(=O)N6)cc5)c4Cl)cccc32)c(Cl)cc1CN[C@@H](CO)C(=O)O [Compound 80]
EC50: 302 nM

COc1cc(Cn2nc(F)c3c(-c4cccc(-c5ccc(CNC[C@@H]6CCC(=O)N6)cc5)c4Cl)cccc32)c(Cl)cc1CN[C@@H](CO)C(=O)O [Compound 83]
EC50: 92 nM

COc1cc(Cn2ncc3c(-c4cccc(-c5ccc(CNC[C@@H]6CCC(=O)N6)cc5)c4Cl)cccc32)c(Cl)cc1CNCc1nnn[nH]1 [Compound 85]
EC50: 469 nM

O=C(O)COc1cc(Cn2ncc3c(-c4cccc(-c5ccc(CNC[C@@H]6CCC(=O)N6)cc5)c4Cl)cccc32)c(Cl)cc1CNCCO [Compound 86]
EC50: 395 nM

COc1cc(-c2cccc(-c3cccc4c3cnn4Cc3cc(OC)c(CN4CC[C@@H](C(=O)O)C4)cc3Cl)c2Cl)ccc1CN1CC[C@@H](O)C1 [Compound 87]
EC50: 692 nM

COc1cc(-c2cccc(-c3cccc4c3cnn4Cc3cc(OC)c(CN4CC[C@@H](C(=O)O)C4)cc3Cl)c2Cl)ccc1CNCCO [Compound 88]
EC50: 80 nM

COc1cc(Cn2ncc3c(-c4cccc(-c5ccc(CNC[C@@H]6CCC(=O)N6)cc5)c4Cl)cccc32)c(N)cc1CN[C@@H](CO)C(=O)O [Compound 89]
EC50: 1110 nM

COc1cc(-c2cccc(-c3cccc4c3cnn4Cc3cc(OC)c(CN4CC[C@@H](C(=O)O)C4)cc3Cl)c2C)ccc1CNC[C@@H]1CCC(=O)N1 [Compound 90]
EC50: 150 nM

COc1cc(Cn2ncc3c(-c4cccc(-c5ccc(CNC[C@@H]6CCC(=O)N6)c(OC)n5)c4Cl)cccc32)c(Cl)cc1CN(C)CC1CCC(C(=O)O)CC1 (stereo partly shown) [Compound 91]
EC50: 92 nM

COc1cc(-c2cccc(-c3cccc4c3cnn4Cc3cc(OC)c(CN(C)C4CCC(C(=O)O)CC4)cc3[N+](=O)[O-])c2Cl)ccc1CNC[C@@H]1CCC(=O)N1 (stereo partly shown) [Compound 92]
EC50: 15 nM

COc1cc(-c2cccc(-c3cccc4c3cnn4Cc3cc(OC)c(CN(C)[C@H]4C[C@H](C(=O)O)C4)cc3Cl)c2Cl)ccc1CNC[C@@H]1CCC(=O)N1 [Compound 93]
EC50: 21 nM

COc1cc(-c2cccc(-c3cccc4c3cnn4Cc3cc(OC)c(CN4CCC(CC(=O)O)CC4)cc3Cl)c2Cl)ccc1CNC[C@@H]1CCC(=O)N1 [Compound 94]
EC50: 142 nM

COc1cc(-c2cccc(-c3cccc4c3cnn4Cc3cc(OC)c(CN(C)[C@H]4CC[C@H](CC(=O)O)CC4)cc3Cl)c2Cl)ccc1CNC[C@@H]1CCC(=O)N1 [Compound 95]
EC50: 15 nM

COc1cc(-c2cccc(-c3cccc4c3cnn4Cc3cc(OC)c(CN(C)CC4CCC(C(=O)O)CC4)cc3[N+](=O)[O-])c2Cl)ccc1CNC[C@@H]1CCC(=O)N1 (stereo partly shown) [Compound 96]
EC50: 45 nM

CCOc1cc(-c2cccc(-c3cccc4c3cnn4Cc3cc(OC)c(CN(C)CC4CCC(C(=O)O)CC4)cc3Cl)c2Cl)ccc1CNC[C@@H]1CCC(=O)N1 (stereo partly shown) [Compound 97]
EC50: 273 nM

COc1cc(Cn2ncc3c(-c4cccc(-c5ccc(CNC[C@@H]6CCC(=O)N6)c(OC(C)C)c5)c4Cl)cccc32)c(Cl)cc1CN(C)CC1CCC(C(=O)O)CC1 (stereo partly shown) [Compound 98]
EC50: 520 nM

COc1cc(-c2cccc(-c3cccc4c3cnn4Cc3cc(OC)c(CN4CC[C@H](CC(=O)O)C4)cc3Cl)c2Cl)ccc1CNC[C@@H]1CCC(=O)N1 [Compound 99]
EC50: 62 nM

COc1cc(Cn2ncc3c(-c4cccc(-c5ccc(CN(C)C[C@@H]6CCC(=O)N6)c(OC)c5)c4Cl)cccc32)c(Cl)cc1CN(C)CC1CCC(C(=O)O)CC1 (stereo partly shown) [Compound 100]
EC50: 745 nM

COc1cc(Cn2ncc3c(-c4cccc(-c5cc(F)c(CNC[C@@H]6CCC(=O)N6)c(OC)c5)c4Cl)cccc32)c(Cl)cc1CN(C)CC1CCC(C(=O)O)CC1 (stereo partly shown) [Compound 101]
EC50: 87 nM

COc1cc(Cn2ncc3c(-c4cccc(-c5cc(OC)c(CNC[C@@H]6CCC(=O)N6)c(OC)c5)c4Cl)cccc32)c(Cl)cc1CN(C)CC1CCC(C(=O)O)CC1 (stereo partly shown) [Compound 102]
EC50: 735 nM

COc1cc(-c2cccc(-c3cccc4c3cnn4Cc3cc(OC)c(CN(C)C4CCC(C(=O)O)CC4)cc3S(C)(=O)=O)c2Cl)ccc1CNC[C@@H]1CCC(=O)N1 (stereo partly shown) [Compound 103]
EC50: 208 nM

COc1cc(-c2cccc(-c3cccc4c3cnn4Cc3cc(OC)c(CN(C)[C@H]4C[C@@H](C(=O)O)C4)cc3Cl)c2Cl)ccc1CNC[C@@H]1CCC(=O)N1 [Compound 104]
EC50: 46 nM

COc1cc(-c2cccc(-c3cccc4c3cnn4Cc3cc(OC)c(CN(C)C45CCC(C(=O)O)(CC4)CC5)cc3Cl)c2Cl)ccc1CNC[C@@H]1CCC(=O)N1 [Compound 105]
EC50: 20 nM

COc1cc(-c2cccc(-c3cccc4c3cnn4Cc3cc(OC)c(CN(C)C4CC5(CC(C(=O)O)C5)C4)cc3Cl)c2Cl)ccc1CNC[C@@H]1CCC(=O)N1 (stereo partly shown) [Compound 106]
EC50: 43 nM

COc1cc(-c2cccc(-c3cccc4c3cnn4Cc3cc(OC)c(CN(C)C4CCC(C(=O)O)CC4)cc3C#N)c2Cl)ccc1CNC[C@@H]1CCC(=O)N1 (stereo partly shown) [Compound 107]
EC50: 20 nM

COc1cc(-c2cccc(-c3cccc4c3cnn4Cc3cc(OC)c(CN(C)C4CCC(CC(=O)O)CC4)cc3C#N)c2Cl)ccc1CNC[C@@H]1CCC(=O)N1 (stereo partly shown) [Compound 108]
EC50: 63 nM

COc1cc(-c2cccc(-c3cccc4c3cnn4Cc3cc(OC)c(CN(C)[C@H]4CC[C@@H](CC(=O)O)CC4)cc3Cl)c2Cl)ccc1CNC[C@@H]1CCC(=O)N1 [Compound 109]
EC50: 44 nM

COc1cc(-c2cccc(-c3cccc4c3cnn4Cc3cc(OC(C)C)c(CN(C)CC4CCC(C(=O)O)CC4)cc3Cl)c2Cl)ccc1CNC[C@@H]1CCC(=O)N1 (stereo partly shown) [Compound 110]
EC50: 495 nM

COc1cc(Cn2ncc3c(-c4cccc(-c5ccc(CNC[C@@H]6CCC(=O)N6)cc5)c4Cl)cccc32)c(F)cc1CN(C)CC1CCC(C(=O)O)CC1 (stereo partly shown) [Compound 111]
EC50: 1040 nM

COc1cc(-c2cccc(-c3cccc4c3cnn4Cc3cc(OC)c(CN(C)CC4CCC(C(=O)O)CC4)cc3C)c2Cl)ccc1CNC[C@@H]1CCC(=O)N1 (stereo partly shown) [Compound 112]
EC50: 185 nM

Source: US12583839B2, “PD-L1 antagonist compound” (ADLAI NORTYE BIOPHARMA CO., LTD., priority 2019, dated 2026)
